From patent publication US5888763A, “Peptides specific for the first Crk-SH3 domain” (The Rockefeller University, priority 1994, dated 1999)
Where a SMILES comes first, the peptide text is derived from it.

Experiments:
c-CrkSH3(1) = biological target: T1, c-CrkSH3(1) (Mus musculus, UniProt Q64010); test: Tryptophan fluorescence titration of peptides with gst-c-CrkSH3(1); type: binding, murine; conditions: fluorescence measurements
T1 construct: made in house; host or cells: bacteria
From the text: (§1) Fluorescence Measurements. The fluorescence measurements were based predominantly on the interactions of the peptides with the aromatic residues, predominantly Trp (Yu et al., 1994, Cell 76:933) in the CrkSH3 domain.
(§2) Measurements were made with a Perkin-Elmer 760-40 fluorescence spectrophotometer at a excitation wavelength of 290 nm (slitwidth 2 nm) and an emission wavelength of 345 nm (slitwidth 17 nm). A mini-magnetic stirrer, CUV-O-STIR model 333 (HELLMA, Long Island, N.Y.) was used to mix the solution in a 1 cm square quartz fluorescence cell. A circulating water bath was used to maintain the sample temperature at 18° C. To obtain the titration curves for calculations of the binding constants, peptides from a stock solution of 5 mg/ml in TBS, 0.05% Tween-20 were added in small increments to a 1 ml volume of 0.5 μM SH3 domain in PBS, 1 mM Dithiothreitol (DTT).
(§3) Calculation of the binding constant. Since the concentration of the SH3-domain containing protein was low, the experimental data were fitted to the following equation:
(§4) F=Fmax *[peptide]/(Kd +[peptide]) (1)
(§5) Non-linear regression curve fitting using SigmaPlot (Jandel Scientific, San Rafael, Calif.) was carried out to fit the experimental data to equation (1) with Fmax and Kd as fitted parameters.

Grb2 SH3 domain = biological target: T2, Grb2 SH3 domain (Homo sapiens, UniProt P62993); test: Tryptophan fluorescence titration of peptides with gst-Grb2; type: binding
T2 construct: made in house; host or cells: bacteria

CRKL = biological target: T3, CRKL (Homo sapiens, UniProt P46109); test: Tryptophan fluorescence titration of peptides with gst-CRKL; type: binding; conditions: Table 3; fluorescence measurements
T3 construct: made in house; host or cells: bacteria
From the text: as §1, §2, §3, §4, §5

v-Crk = biological target: T4, v-Crk (Avian sarcoma virus CT10, UniProt P05433); test: Tryptophan fluorescence titration of peptides with gst-v-Crk; type: binding; conditions: Table 3; fluorescence measurements
T4 construct: made in house; host or cells: bacteria
From the text: as §1, §2, §3, §4, §5

[1] = biological target: T5, gst-c-CrkSH3(1) (Example 2) (murine, UniProt Q64010); test: filter binding of 35S-gst-CrkSH3(1) to blotted gst-fusion peptides
CrkSH3(N) domain = biological target: T6, CrkSH3(N) domain (Mus musculus, UniProt Q64010); test: SH3 blot assay with 35S-labeled gst-C3G CB-region; type: binding
T6 construct: probed with 1-2 μg/ml ^35 S-labeled gst-fusion CrkSH3(1) domain; made in house; host or cells: bacteria
Procedure: (§6) SH3 Blot Assay. […] of gst or equimolar amounts of SH3-fusion proteins were subjected to SDS-PAGE, electroblotted and incubated with […] (70,000 dpm/ml) ^35 S-labeled gst-C3G CB region as described (Feller et al., supra). Filters were exposed over night.

PI3Kp85-a-SH3 domain = biological target: T7, PI3Kp85-a-SH3 domain (Homo sapiens, UniProt P27986); test: SH3 blot assay with 35S-labeled gst-C3G CB-region; type: binding
T7 construct: The PI3Kp85-a-SH3 domain was a gift of L. Cantley
Procedure: as §6

[2] = test system: Grb2, the individual Grb2SH3 domains; test: SH3 blot assay with 35S-labeled gst-C3G CB-region; type: binding
Procedure: as §6

[3] = biological target: T5, gst-c-CrkSH3(1) (Example 2); test: tryptophan fluorescence titration
[4] = biological target: T5, gst-c-CrkSH3(1) (Example 2); test: rounded value given in the summary of Example 3 for the peptide and Crk SH3-N; measured by fluorescence in Example 2
gst-v-Crk = gst-v-Crk (Avian sarcoma virus CT10 (Avian sarcoma …, UniProt P05433)); test: tryptophan fluorescence titration
[5] = c-CrkSH3(1) Kd (μM), Table 2, gst-CrkSH3(1), 18° C

T2 sequence (P62993 whole entry, the tested form may be a part): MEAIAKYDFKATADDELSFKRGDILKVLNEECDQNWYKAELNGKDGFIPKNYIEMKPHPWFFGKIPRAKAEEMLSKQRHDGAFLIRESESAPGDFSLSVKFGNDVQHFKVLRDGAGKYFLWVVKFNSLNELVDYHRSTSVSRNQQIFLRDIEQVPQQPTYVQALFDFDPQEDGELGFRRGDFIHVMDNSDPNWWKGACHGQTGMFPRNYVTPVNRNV
T3 sequence (P46109 whole entry, species assumed): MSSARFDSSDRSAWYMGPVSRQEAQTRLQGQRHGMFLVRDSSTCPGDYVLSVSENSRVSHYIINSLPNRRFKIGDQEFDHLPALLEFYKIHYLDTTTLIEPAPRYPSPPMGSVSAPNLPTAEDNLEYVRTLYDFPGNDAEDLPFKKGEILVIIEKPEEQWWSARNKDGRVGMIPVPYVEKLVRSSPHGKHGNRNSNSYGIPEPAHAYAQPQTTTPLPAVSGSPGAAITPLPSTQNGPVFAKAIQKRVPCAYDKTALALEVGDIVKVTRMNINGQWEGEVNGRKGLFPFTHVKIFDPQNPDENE
T4 sequence (P05433 whole entry): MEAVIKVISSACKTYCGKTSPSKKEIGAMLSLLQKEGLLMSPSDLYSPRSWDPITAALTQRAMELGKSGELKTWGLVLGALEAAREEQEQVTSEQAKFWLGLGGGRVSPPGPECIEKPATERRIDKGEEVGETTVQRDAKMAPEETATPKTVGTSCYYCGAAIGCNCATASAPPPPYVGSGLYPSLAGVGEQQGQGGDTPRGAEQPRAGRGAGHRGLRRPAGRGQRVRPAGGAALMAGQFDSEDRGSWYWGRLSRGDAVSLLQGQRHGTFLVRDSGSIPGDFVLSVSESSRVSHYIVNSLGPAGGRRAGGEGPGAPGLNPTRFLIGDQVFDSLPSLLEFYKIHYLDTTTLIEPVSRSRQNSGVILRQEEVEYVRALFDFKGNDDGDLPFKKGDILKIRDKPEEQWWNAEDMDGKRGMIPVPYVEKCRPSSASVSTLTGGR
T7 sequence (P27986 3-79 limits assumed): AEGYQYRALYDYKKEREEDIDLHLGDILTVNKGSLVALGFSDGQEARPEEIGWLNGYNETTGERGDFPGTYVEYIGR
T6 sequence (Q64010 132-192 limits assumed): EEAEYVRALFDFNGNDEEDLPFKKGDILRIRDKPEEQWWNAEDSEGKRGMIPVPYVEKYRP

CC(C)C[C@H](NC(=O)[C@H](C)NC(=O)[C@@H]1CCCN1C(=O)[C@@H]1CCCN1C(=O)[C@@H]1CCCN1)C(=O)N1CCC[C@H]1C(=O)N1CCC[C@H]1C(=O)N[C@@H](CCCCN)C(=O)N[C@@H](CCCCN)C(=O)N[C@@H](CCCNC(=N)N)C(=O)O [CB-1 peptide]
Kd (c-CrkSH3(1); Kd for the CrkSH3(1) domain): 1.89 ± 0.06 µM | Kd (Grb2 SH3 domain): 142 ± 3 µM | Kd (CRKL): 2.79 ± 0.1 µM

CC(C)C[C@H](NC(=O)[C@H](C)NC(=O)[C@@H]1CCCN1C(=O)[C@@H]1CCCN1C(=O)[C@@H]1CCCN1)C(=O)N1CCC[C@H]1C(=O)N1CCC[C@H]1C(=O)N[C@@H](C)C(=O)N[C@@H](CCCCN)C(=O)N[C@@H](CCCNC(=N)N)C(=O)O (H-PPPALPPAKR-OH)
Kd (v-Crk): 248 ± 10 µM

CC(C)C[C@H](NC(=O)[C@@H]1CCCN1C(=O)[C@@H]1CCCN1C(=O)[C@H](CC(C)C)NC(=O)[C@H](C)NC(=O)[C@@H]1CCCN1C(=O)[C@@H]1CCCN1C(=O)[C@@H]1CCCN1)C(=O)N[C@@H](CCCCN)C(=O)N[C@@H](CCCNC(=N)N)C(=O)O (H-PPPALPPLKR-OH)
Kd (c-CrkSH3(1); gst-c-CrkSH3(1) Kd (μM), Table 3): 379 ± 1 µM | Kd (v-Crk): 437 ± 6 µM

CC(C)C[C@H](NC(=O)[C@H](C)NC(=O)[C@@H]1CCCN1C(=O)[C@@H]1CCCN1C(=O)[C@@H]1CCCN1)C(=O)N1CCC[C@H]1C(=O)N1CCC[C@H]1C(=O)N[C@@H](CCCNC(=N)N)C(=O)N[C@@H](CCCCN)C(=O)N[C@@H](CCCNC(=N)N)C(=O)O [C3Gmut(2)] (H-PPPALPPRKR-OH)
Kd (c-CrkSH3(1); [5]): 17.2 ± 0.4 µM | Kd (Grb2 SH3 domain): 23.5 ± 0.8 µM | Kd (CRKL): 11.2 ± 0.5 µM

CC(C)[C@H](NC(=O)[C@@H]1CCCN1C(=O)[C@@H]1CCCN1C(=O)[C@@H]1CCCN1)C(=O)N1CCC[C@H]1C(=O)N1CCC[C@H]1C(=O)N[C@@H](CCCNC(=N)N)C(=O)N[C@@H](CCCNC(=N)N)C(=O)N[C@@H](CCCNC(=N)N)C(=O)N[C@@H](CCCNC(=N)N)C(=O)O [SOS-1, reference compound]
Kd (c-CrkSH3(1); [5]): 5.24 ± 0.16 µM | Kd (Grb2 SH3 domain): 3.54 ± 0.16 µM | Kd (CRKL): 10.5 ± 0.8 µM

B1: gst-1-12 (GST-NSPPPALPPKKR) (other)
chain: NSPPPALPPKKR
modifications: not fully specified
binding result [1]: binds

B2: C3G CB-region: C3G region containing all four CB-sequences expressed as 35S-labeled gst-fusion protein (protein)
chain: NSPPPALPPKKRQSAPSPTRVAVVAPMSRATSGSSLPVGINRQDFDVDCYAQRRLSGGSHSYGGESPRLSPCSSIGKLSKSDEQLSSLDRDSGQCSRNTSCETLDHYDPDYEFLQQDLSNADQIPQQTAWNLSPLPESLGESGSPFLGPPFQLPLGGHPQPDGPLAPGQQTDTPPALPKKKRRSAASQTADGSGCRVSYERHPSQYDNISGEDLQSTAPIPSVPYAPFAAILPFQHGGSSAPVEFVGDFTAPESTGDPEKPPPLPEKKQKHMLAYMQLLEDYSEPQPSMFYQTPQNEHIYQQKMKLLMEVYGFSDSFSGVDSVQELAPPPALPPAQRQLEPPAGKDGHPRDPSAVSVVPGKDSRDGSERAPKDP
binding to gst-fusion constructs containing the CrkSH3(N) domain (CrkSH3(N) domain): bound strongly | binding to PI3Kp85-a-SH3 domain (PI3Kp85-a-SH3 domain): only bound weakly | binding to Grb2 and the individual Grb2SH3 domains [2]: only bound weakly

B3: C3Gmut(1) peptide (PPPPLPPKKR) (peptide)
peptide: PPPPLPPKKR
Kd [3]: 1.45 µM

B4: CB-1 peptide (PPPALPPKKR) (peptide)
peptide: PPPALPPKKR
Kd [4]: ~2 µM | Kd (gst-v-Crk): 25.5 µM

B5: gst-3-11 (CB-1 gst-fusion peptide without the C-terminal Arg-12) (other)
chain: PPPALPPKK
binding result [1]: no binding

B6: SOS-2 peptide (PPAIPPRQPT) (peptide)
peptide: PPAIPPRQPT
Kd [3]: 127 µM
